Measurements taken from patent US11584775B2, “C4-modified oleanolic acid derivatives for inhibition of IL-17 and other uses” (REATA PHARMACEUTICALS, INC., priority 2015, dated 2023).

What was measured:
[1] = test system: IFNγ-induced Nitric Oxide production; test: Nitric oxide production assay in RAW 264.7 mouse macrophages; format: cell-based; conditions: RAW264.7, suppression of IFNγ-induced NO production normalized to cell viability (WST-1), RAW 264.7, 24 hours IFNγ
How it was run: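 Cells pre-treated 2 h with compound (0.4-200 nM or 2-1000 nM) in RPMI 1640 + 0.5% FBS, then stimulated with recombinant mouse IFNγ for 24 h at 37 °C. Nitrite measured by Griess reagent, viability by WST-1; IC50 from NO suppression normalized to viability and to DMSO/IFNγ controls.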

human RORγ = biological target: T1, human RORγ (Homo sapiens, UniProt P51449); test: RORγ assay (GAL4-RORγ hybrid luciferase reporter, inverse-agonist activity); format: cell-based; conditions: GAL4-RORγ hybrid reporter cells, 23 hours
T1 sequence (P51449 269-508 limits assumed): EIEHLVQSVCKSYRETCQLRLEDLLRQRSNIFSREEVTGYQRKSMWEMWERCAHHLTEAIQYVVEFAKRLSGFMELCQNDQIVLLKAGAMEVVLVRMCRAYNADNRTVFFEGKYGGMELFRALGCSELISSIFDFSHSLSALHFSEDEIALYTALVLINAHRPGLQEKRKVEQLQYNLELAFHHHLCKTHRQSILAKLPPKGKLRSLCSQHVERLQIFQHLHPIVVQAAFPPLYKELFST
How it was run: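 Human cell line expressing GAL4-DBD/RORγ hybrid with UAS-driven luciferase, treated in triplicate with compound (0.4–200 nM or 2–1000 nM) for 23 h at 37 °C. Luminescence normalized to DMSO; viability measured in parallel by multiplex assay. IC50 for RORγ and viability by variable-slope nonlinear regression.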

NRF2 = test: AREc32 luciferase reporter assay; format: cell-based, human; conditions: EC2×: concentration required to increase GST ARE Luciferase reporter activity by 2-fold; AREc32 cells, 19 hours
How it was run: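 AREc32 cells (MCF-7 stably carrying eight rat GSTA2 ARE copies driving firefly luciferase) treated 19 h with compound (0.4–200 nM or 2–1000 nM), triplicate. Luminescence normalized to DMSO as fold-induction; variable-slope fit capped at 50-fold; EC2× = concentration giving 2-fold induction.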

hIL17 = test: IL-17 release from differentiated primary human T-cells (IL-17A HTRF assay); format: cell-based; conditions: inhibition of IL-17A levels; primary human CD4+ T cells differentiated into Th17 cells, 46-hour incubation
How it was run: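 Cryopreserved primary human CD4+ T cells were activated with anti-CD3/CD28 beads and driven to Th17 with TGF-β, IL-6, IL-23 and IL-1β in the presence of compound (2-500 nM or 4-1000 nM) for 46 h at 37° C. Supernatant IL-17A was quantified by HTRF against a standard curve and normalized to DMSO. IC50s came from variable-slope fits, with viability read by CyQuant.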

Structure (SMILES)	IC50 (human RORγ) [nM]	IC50 (hIL17) [nM]	IC50 [1] [nM]	EC2x: concentration giving 2-fold induction of ARE luciferase reporter (NRF2) [nM]
COCOC[C@@]1(C)C(=O)C(C#N)=C[C@]2(C)C3=CC(=O)[C@@H]4[C@@H]5CC(C)(C)CC[C@]5(C(=O)OC)CC[C@@]4(C)[C@]3(C)CC[C@@H]12 [Comparison Compound #302, reference compound]	91	24	13.1	78
COC(=O)[C@]12CCC(C)(C)C[C@H]1[C@H]1C(=O)C=C3[C@@]4(C)C=C(C#N)C(=O)[C@@H](C)[C@@H]4CC[C@@]3(C)[C@]1(C)CC2 [Comparison Compound #1, reference compound]	127	25	1.2	11
Cc1nnc([C@]23CCC(C)(C)C[C@H]2[C@H]2C(=O)C=C4[C@@]5(C)C=C(C#N)C(=O)C(C)(C)[C@@H]5CC[C@@]4(C)[C@]2(C)CC3)o1 [Comparison Compound #8, reference compound]	222	32	2	15
Cc1noc([C@]23CCC(C)(C)C[C@H]2[C@H]2C(=O)C=C4[C@@]5(C)C=C(C#N)C(=O)C(C)(C)[C@@H]5CC[C@@]4(C)[C@]2(C)CC3)n1 [Comparison Compound #9, reference compound]	176	18	1.2	12
CC1(C)CC[C@]2(C(=O)NCC(F)(F)F)CC[C@]3(C)[C@H](C(=O)C=C4[C@@]5(C)C=C(C#N)C(=O)C(C)(C)[C@@H]5CC[C@]43C)[C@@H]2C1 [Comparison Compound #2, reference compound]	104	40	4.5	53

More lines, main results first:

IC50 (human RORγ) [nM]	IC50 (hIL17) [nM]	Structure (SMILES)	IC50 [1] [nM]	EC2x: concentration giving 2-fold induction of ARE luciferase reporter (NRF2) [nM]
1040	11	CC1(C)CC[C@@]23CC[C@@]4(C)[C@]5(C)CC[C@@H]6[C@@](C)(C5=CC(=O)[C@]4(OC2=O)[C@@H]3C1)[C@H]1O[C@@]1(C#N)C(=O)[C@@]6(C)O [Compound T50, (1aR,3S,3aR,5aR,5bS,7aS,11aR,11bS,13bS,13cR)-3-hydroxy-3,5a,5b,10,10,13b-hexamethyl-2,12,15-trioxo-3,3a,4,5,5a,6,7,9,10,11,11a,12,13b,13c-tetradecahydro-2H, 8H-11b,7a-(epoxymethano)piceno[1,2-b]oxirene-1a(5bH)-carbonitrile]	65.4	162
169	18	COC(=O)[C@]12CCC(C)(C)C[C@H]1[C@H]1C(=O)C=C3[C@@]4(C)C=C(C#N)C(=O)[C@](C)(C(=O)OC)[C@@H]4CC[C@@]3(C)[C@]1(C)CC2 [Compound T3, dimethyl (4R,4aR,6aS,6bR,8aS,12aS,12bR,14bS)-2-cyano-4,6a,6b, 11,11,14b-hexamethyl-3,13-dioxo-4,4a,5,6,6a,6b,7,8,9,10,11,12,12a,12b,13,14b-hexadecahydropicene-4,8a(3H)-dicarboxylate]	22.3	48
135	35	COC(=O)N[C@]12CCC(C)(C)C[C@H]1[C@H]1C(=O)C=C3[C@@]4(C)C=C(C#N)C(=O)[C@@](C)(COC(C)=O)[C@@H]4CC[C@@]3(C)[C@]1(C)CC2 [Compound T41, ((4R,4aR,6aS,6bR,8aS,12aS,12bR,14bS)-2-cyano-8a-((methoxycarbonyl)amino)-4,6a,6b, 11,11,11,14b-hexamethyl-3,13-dioxo-3,4,4a,5,6,6a,6b,7,8,8a,9,10,11,12,12a,12b,13,14b-octadecahydropicen-4-yl)methyl acetate]	151	330
364	47	COC(=O)N[C@]12CCC(C)(C)C[C@H]1[C@H]1C(=O)C=C3[C@@]4(C)C=C(C#N)C(=O)[C@@](C)(O)[C@@H]4CC[C@@]3(C)[C@]1(C)CC2 [Compound T39, methyl ((4aS,6aR,6bS,8aR,9S,12aS,14aR,14bS)-11-cyano-9-hydroxy-2,2,6a,6b,9,12a-hexamethyl-10,14-dioxo-1,3,4,5,6,6a,6b,7,8,8a,9,10,12a,14,14a,14b-hexadecahydropicen-4a(2H)-yl)carbamate]	91.2	218
220	25	CC1(C)CC[C@@]23CC[C@@]4(C)[C@]5(C)CC[C@H]6[C@](C)(O)C(=O)C(C#N)=C[C@]6(C)C5=CC(=O)[C@]4(OC2=O)[C@@H]3C1 [Compound T33, (4S,4aR,6aR,6bS,8aS,12aR,12bS,14bS)-4-hydroxy-4,6a,6b, 11,11,14b-hexamethyl-3,13,16-trioxo-4,4a,5,6,6a,6b,7,8,10,11,12,12a,13,14b-tetradecahydro-3H,9H-12b,8a-(epoxymethano)picene-2-carbonitrile]	79.9	120
698	37	COC(=O)N[C@]12CCC(C)(C)C[C@H]1[C@H]1C(=O)C=C3[C@@]4(C)C=C(C#N)C(=O)[C@@](C)(CO)[C@@H]4CC[C@@]3(C)[C@]1(C)CC2 [Compound T40, methyl ((4aS,6aR,6bS,8aR,9R,12aS,14aR,14bS)-11-cyano-9-(hydroxymethyl)-2,2,6a,6b,9,12a-hexamethyl-10,14-dioxo-1,3,4,5,6,6a,6b,7,8,8a,9,10,12a,14,14a,14b-hexadecahydropicen-4a(2H)-yl)carbamate]	24.6	130
115	18	COC(=O)[C@]12CCC(C)(C)C[C@H]1[C@H]1C(=O)C=C3[C@@]4(C)C=C(C#N)C(=O)[C@@](C)(O)[C@@H]4CC[C@@]3(C)[C@]1(C)CC2 [Compound T5]	22.6	56
236	50	Cc1nnc([C@]23CCC(C)(C)C[C@H]2[C@H]2C(=O)C=C4[C@@]5(C)C=C(C#N)C(=O)[C@@](C)(O)[C@@H]5CC[C@@]4(C)[C@]2(C)CC3)o1 [Compound T44, (4S,4aR,6aS,6bR,8aS,12aS,12bR,14bS)-4-hydroxy-4,6a,6b, 11,11,14b-hexamethyl-8a-(5-methyl-1,3,4-oxadiazol-2-yl)-3,13-dioxo-3,4,4a,5,6,6a,6b,7,8,8a,9,10,11,12,12a,12b,13,14b-octadecahydropicene-2-carbonitrile]	72.8	156
177	16	COC(=O)[C@]12CCC(C)(C)C[C@H]1[C@@]1(O)C(=O)C=C3[C@@]4(C)C=C(C#N)C(=O)[C@@](C)(O)[C@@H]4CC[C@@]3(C)[C@]1(C)CC2 [Compound T38, methyl (4aS,6aS,6bR,8aR,9S,12aS,14aS,14bR)-11-cyano-9,14a-dihydroxy-2,2,6a,6b,9,12a-hexamethyl-10,14-dioxo-1,3,4,5,6,6a,6b,7,8,8a,9,10,12a,14,14a,14b-hexadecahydropicene-4a(2H)-carboxylate]	57.2	80
197	37	CC1(C)CC[C@]2(C(=O)NCC(F)(F)F)CC[C@]3(C)[C@H](C(=O)C=C4[C@@]5(C)C=C(C#N)C(=O)[C@@](C)(O)[C@@H]5CC[C@]43C)[C@@H]2C1 [Compound T24, (4aS,6aR,6bS,8aR,9S,12aS,14aR,14bS)-11-cyano-9-hydroxy-2,2,6a,6b,9,12a-hexamethyl-10,14-dioxo-N-(2,2,2-trifluoroethyl)-1,3,4,5,6,6a,6b,7,8,8a,9,10,12a,14,14a,14b-hexadecahydropicene-4a(2H)-carboxamide]	184	406
256	50	CC1(C)CC[C@]2(C(=O)NCC(F)(F)F)CC[C@]3(C)[C@H](C(=O)C=C4[C@@]5(C)C=C(C#N)C(=O)[C@@](C)(CO)[C@@H]5CC[C@]43C)[C@@H]2C1 [Compound T22, (4aS,6aR,6bS,8aR,9R,12aS,14aR,14bS)-11-cyano-9-(hydroxymethyl)-2,2,6a,6b,9,12a-hexamethyl-10,14-dioxo-N-(2,2,2-trifluoroethyl)-1,3,4,5,6,6a,6b,7,8,8a,9,10,12a,14,14a,14b-hexadecahydropicene-4a(2H)-carboxamide]	13.5	103
